Test results published in paper PMC12655527, “An Investigational Study on the Role of ADME Agents’ Genetic Variation on DD217 Pharmacokinetics and Safety Profile” (Pharmaceuticals, 2025).

Assays:
[1] = system: patients undergoing knee replacement surgery; experiment: Thromboembolic complications (DVT/PE) during 14-day therapy, phase II trial; type: in vivo, human; conditions: 14 days
Excerpt: (§1) The design, eligibility criteria, and outcomes of the phase II clinical trial evaluating the safety and tolerability of DD217 (NCT05189002, ClinicalTrials.gov) have been described previously. Briefly, this was a multicenter, double-blind, randomized, prospective phase II study designed to determine the optimal dosing regimen and to assess the safety and efficacy of DD217 for the prevention of venous thromboembolism (VTE) in patients undergoing knee replacement surgery. Patients were randomized into one of three groups: two groups received oral DD217 at doses of 40 mg or 60 mg once daily, starting on the morning of the first postoperative day, and one group received the active comparator, dalteparin sodium. The treatment duration was 14 days.
(§2) In total, seven cases of DVT/PE were documented during the trial: four in the DD217 40 mg/day group, one in the DD217 60 mg/day group, and two in the dalteparin sodium group. In addition, two bleeding events were recorded: one clinically relevant non-major bleed in the DD217 60 mg/day group and one clinically non-relevant minor bleed in the dalteparin sodium group.

[2] = system: patients undergoing knee replacement surgery; experiment: Bleeding events during 14-day therapy, phase II trial; type: in vivo, human
Excerpt: as §1, §2

[3] = system: CYP; design: method as in DrugBank. Betrixaban (DB12364); conditions: ref DrugBank. Betrixaban (DB12364); cited from earlier work
[4] = system: P-glycoprotein (ABCB1); design: method as in earlier work; conditions: cited from earlier work

Compound | cases of DVT/PE ([1]; dalteparin sodium group (18 patients)) | PE/DVT, n (safety outcomes) ([1]; dalteparin sodium, of 18 patients) | bleeding events ([2]; dalteparin sodium group, clinically non-relevant minor bleed) | Bleeding, n (safety outcomes) ([2]; dalteparin sodium, 14 days, of 18 patients) | share of metabolism via CYP [3] | P-glycoprotein (ABCB1) substrate status [4]
dalteparin sodium [reference compound] | two | 2 n | one | 1 n |  | 
COc1ccc(NC(=O)c2ccc(C(=N)N(C)C)cc2)c(C(=O)Nc2ccc(Cl)cn2)c1 [Betrixaban] |  |  |  |  | < 1% | P-glycoprotein (ABCB1) substrate
